{"source": "patent US11865126B2", "about": "“Method for treating anxiety disorders, headache disorders, and eating disorders with psilocybin” (priority 2019, dated 2024)", "tested_on": "healthy subjects", "assay": "Phase 1 healthy volunteer study, single oral dose: treatment-emergent adverse events", "type": "in vivo, human", "details": "10 mg", "procedure": "A Phase 1 randomized, double-blind, placebo-controlled study to evaluate the effect of psilocybin on cognitive and emotional processing as compared to placebo in healthy volunteers was conducted. The study investigated the short-term (Day 7) and long-term (Day 28) effects of moderate (10 mg) and high doses (25 mg) of psilocybin on key domains of cognition, such as episodic memory, attention, working and spatial memory, social cognition and elements of executive function, including cognitive flexibility.\n90 healthy subjects were studied. Approximately 50% of the subjects were psilocybin-naïve. For subjects with prior psilocybin experience, the last exposure was at least 1 year prior to the signing of the Informed Consent Form (ICF). Approximately 50% of the subjects were female. Subjects were stratified by sex and age (18-35 years old; >35 years old).\nEach subject was assigned 1 treatment bottle containing 5 capsules packaged in a double-blind fashion, depending on the randomized treatment arm, the bottle contained one of the following: • a. Psilocybin 10 mg: 2×5-mg oral psilocybin capsules plus 3× placebo capsules • b. Psilocybin 25 mg: 5×5-mg oral psilocybin capsules • c. Placebo: 5× placebo capsules\nEach 5-mg oral psilocybin capsule comprised 5 mg crystalline psilocybin in the form of Polymorph A, 12.5 mg of SMCC 50, 79.5 mg of SMCC 90, 1 mg sodium starch glycolate, 1 mg colloidal silicon dioxide, and 1 mg sodium stearyl fumarate\nAdverse events: Throughout the course of the study, all AEs were monitored and recorded. Each AE was classified according to the following criteria: • i. […] Moderate: The AE produces some impairment of functioning, but is not hazardous to the subject's health. • iii. Severe: The AE produces significant impairment of functioning or incapacitation and is a definite hazard to the subject's health.\nSelected Adverse Events of included: • (a) Euphoric mood • (b) Dissociative disorder • (c) Hallucination • (d) Psychotic disorder • (e) Cognitive disorder • (f) Disturbance in attention • (g) Altered mood • (h) Impairment of psychomotor skills • (i) Inappropriate affect • (j) Overdose • (k) Intentional product misuse • (l) Illusion\nFor example, drug-induced hepatitis that resolved without evidence of hepatic failure would not be considered life threatening even though drug-induced hepatitis can be fatal. • (c) Inpatient hospitalization or prolongation of existing hospitalization. • (d) Persistent or significant disability/incapacity. • (e) Congenital anomaly/birth defect in the offspring of a subject who received psilocybin. • (f) Other: Important medical events that may not result in death, be life-threatening, or require hospitalization, may be considered an SAE when, based upon appropriate medical judgment, they may jeopardize the subject and may require medical or surgical intervention to prevent one of the outcomes listed in this definition. […] Visits:\nVisit 3 (V3): Drug Administration (Day 0): The subject was asked to eat a light breakfast at least two hours prior to coming to the clinic for study drug administration. On Day 0 (V3), the subject underwent the SSTS, had vital signs obtained, medications reviewed, AEs recorded and eligibility reviewed prior to being randomized to study drug. The study drug was administered to up to six subjects simultaneously in individual beds separated by a curtain. The subject was invited to put on eyeshades and headphones, lie down and listen to calming music for the rest of the session (six hours). The subject was supported 1:1 with a chaperone and supervised by the study psychiatrist and lead therapist.\nRecording of adverse events and prior/concomitant medication was performed at each visit.\nDuring administration of psilocybin, each subject received one on one support from a trained assisting therapist and each dosing session was supervised by a study psychiatrist and a lead therapist. […]", "data": [{"smiles": "CN(C)CCc1c[nH]c2cccc(OP(=O)(O)O)c12", "note": "[psilocybin]", "values": [{"measurement": "AEs potentially related to study treatment, % of AEs in arm", "result": 92.6, "unit": "%"}, {"measurement": "Affect lability, worst severity Mild: Events", "result": 3}, {"measurement": "Affect lability, worst severity Mild: N (%)", "result": "3 (10.0)"}, {"measurement": "Affect lability, worst severity Moderate: Events", "result": 2}, {"measurement": "Affect lability, worst severity Severe: Events", "result": 0}, {"measurement": "Affect lability, worst severity Severe: N (%)", "result": 0}, {"measurement": "Affect lability: Events", "result": 5}, {"measurement": "Any Selected TEAE: % of subjects", "result": "(90.0) %"}, {"measurement": "Any Selected TEAE: N (%)", "result": 27}, {"measurement": "Any TEAE leading to death: Events", "result": 0}, {"measurement": "Any TEAE leading to death: N (%)", "result": 0}, {"measurement": "Any TEAE leading to study discontinuation: Events", "result": 0}, {"measurement": "Any TEAE leading to study discontinuation: N (%)", "result": 0}, {"measurement": "Any TEAE related to study treatment: % of subjects", "result": "(96.7) %"}, {"measurement": "Any TEAE related to study treatment: N (%)", "result": 29}, {"measurement": "Any TEAE, worst severity Mild: Events", "result": 12}, {"measurement": "Any TEAE, worst severity Mild: N (%)", "result": "6 (20.0)"}, {"measurement": "Any TEAE, worst severity Moderate: Events", "result": 38}, {"measurement": "Any TEAE, worst severity Severe: Events", "result": 22}, {"measurement": "Any TEAE: % of subjects", "result": 96.7, "unit": "%"}, {"measurement": "Any serious TEAE related to study treatment: Events", "result": 0}, {"measurement": "Any serious TEAE related to study treatment: N (%)", "result": 0}, {"measurement": "Any serious TEAE: Events", "result": 0}, {"measurement": "Any serious TEAE: N (%)", "result": 0}, {"measurement": "Any severe TEAE: % of subjects", "result": "(33.3) %"}, {"measurement": "Any severe TEAE: Events", "result": 22}, {"measurement": "Any severe TEAE: N (%)", "result": 10}, {"measurement": "Emotional disorder, worst severity Mild: Events", "result": 1}, {"measurement": "Emotional disorder, worst severity Moderate: Events", "result": 1}, {"measurement": "Emotional disorder, worst severity Severe: Events", "result": 0}, {"measurement": "Emotional disorder, worst severity Severe: N (%)", "result": 0}, {"measurement": "Emotional disorder: Events", "result": 2}, {"measurement": "Euphoric mood, worst severity Mild: Events", "result": 0}, {"measurement": "Euphoric mood, worst severity Mild: N (%)", "result": 0}, {"measurement": "Euphoric mood, worst severity Moderate: Events", "result": 6}, {"measurement": "Euphoric mood, worst severity Moderate: N (%)", "result": "6 (20.0)"}, {"measurement": "Euphoric mood, worst severity Severe: Events", "result": 1}, {"measurement": "Euphoric mood: Events", "result": 7}, {"measurement": "Fatigue, worst severity Mild: Events", "result": 6}, {"measurement": "Fatigue, worst severity Mild: N (%)", "result": "6 (20.0)"}, {"measurement": "Fatigue, worst severity Moderate: Events", "result": 3}, {"measurement": "Fatigue, worst severity Severe: Events", "result": 1}, {"measurement": "Fatigue: Events", "result": 10}, {"measurement": "Fatigue: N (%)", "result": "9 (30.0)"}, {"measurement": "Feeling abnormal, worst severity Mild: Events", "result": 3}, {"measurement": "Feeling abnormal, worst severity Mild: N (%)", "result": "3 (10.0)"}, {"measurement": "Feeling abnormal, worst severity Moderate: Events", "result": 1}, {"measurement": "Feeling abnormal, worst severity Severe: Events", "result": 0}, {"measurement": "Feeling abnormal, worst severity Severe: N (%)", "result": 0}, {"measurement": "Feeling abnormal: Events", "result": 4}, {"measurement": "Feeling of relaxation: Events", "result": 5}, {"measurement": "Feeling of relaxation: N (%)", "result": "3 (10.0)"}, {"measurement": "Gastrointestinal disorders, worst severity Mild: Events", "result": 3}, {"measurement": "Gastrointestinal disorders, worst severity Mild: N (%)", "result": "3 (10.0)"}, {"measurement": "Gastrointestinal disorders, worst severity Moderate: Events", "result": 1}, {"measurement": "Gastrointestinal disorders, worst severity Severe: Events", "result": 0}, {"measurement": "Gastrointestinal disorders, worst severity Severe: N (%)", "result": 0}, {"measurement": "Gastrointestinal disorders: Events", "result": 4}, {"measurement": "General disorders and administration site conditions, worst severity Mild: Events", "result": 17}, {"measurement": "General disorders and administration site conditions, worst severity Moderate: Events", "result": 6}, {"measurement": "General disorders and administration site conditions, worst severity Moderate: N (%)", "result": "3 (10.0)"}, {"measurement": "General disorders and administration site conditions, worst severity Severe: Events", "result": 1}, {"measurement": "General disorders and administration site conditions: Events", "result": 27}, {"measurement": "Hallucination, auditory, worst severity Mild: Events", "result": 1}, {"measurement": "Hallucination, auditory, worst severity Moderate: Events", "result": 1}, {"measurement": "Hallucination, auditory, worst severity Severe: Events", "result": 2}, {"measurement": "Hallucination, auditory: Events", "result": 4}, {"measurement": "Hallucination, tactile: Events", "result": 2}, {"measurement": "Hallucination, visual, worst severity Mild: Events", "result": 3}, {"measurement": "Hallucination, visual, worst severity Mild: N (%)", "result": "3 (10.0)"}, {"measurement": "Hallucination, visual, worst severity Moderate: Events", "result": 8}, {"measurement": "Hallucination, visual, worst severity Severe: Events", "result": 7}, {"measurement": "Hallucination, visual: Events", "result": 20}, {"measurement": "Hallucination, worst severity Mild: Events", "result": 0}, {"measurement": "Hallucination, worst severity Mild: N (%)", "result": 0}, {"measurement": "Hallucination, worst severity Moderate: Events", "result": 3}, {"measurement": "Hallucination, worst severity Moderate: N (%)", "result": "3 (10.0)"}, {"measurement": "Hallucination, worst severity Severe: Events", "result": 0}, {"measurement": "Hallucination, worst severity Severe: N (%)", "result": 0}, {"measurement": "Hallucination: Events", "result": 3}, {"measurement": "Hallucination: N (%)", "result": "3 (10.0)"}, {"measurement": "Headache, worst severity Mild: Events", "result": 12}, {"measurement": "Headache, worst severity Mild: N (%)", "result": "9 (30.0)"}, {"measurement": "Headache, worst severity Moderate: Events", "result": 0}, {"measurement": "Headache, worst severity Moderate: N (%)", "result": 0}, {"measurement": "Headache, worst severity Severe: Events", "result": 0}, {"measurement": "Headache, worst severity Severe: N (%)", "result": 0}, {"measurement": "Headache: Events", "result": 12}, {"measurement": "Headache: N (%)", "result": "9 (30.0)"}, {"measurement": "Hypoaesthesia, worst severity Mild: Events", "result": 2}, {"measurement": "Hypoaesthesia, worst severity Moderate: Events", "result": 0}, {"measurement": "Hypoaesthesia, worst severity Moderate: N (%)", "result": 0}, {"measurement": "Hypoaesthesia, worst severity Severe: Events", "result": 0}, {"measurement": "Hypoaesthesia, worst severity Severe: N (%)", "result": 0}, {"measurement": "Hypoaesthesia: Events", "result": 2}, {"measurement": "Illusion, worst severity Mild: Events", "result": 7}, {"measurement": "Illusion, worst severity Moderate: Events", "result": 6}, {"measurement": "Illusion, worst severity Severe: Events", "result": 0}, {"measurement": "Illusion, worst severity Severe: N (%)", "result": 0}, {"measurement": "Illusion: Events", "result": 25}, {"measurement": "Infections and infestations, worst severity Mild: Events", "result": 2}, {"measurement": "Infections and infestations, worst severity Moderate: Events", "result": 2}, {"measurement": "Infections and infestations, worst severity Severe: Events", "result": 0}]}]}
